Values of other authors, collected in patent US20040202718A1, “Dosage form for treatment of diabetes mellitus” (priority 2001, published 2004).
Structures can show the parent of a compound that is named as a salt.

Settings: clinical study disclosed in U.S. Pat. No. 5,922,769

In the case of `CN(C)C(=N)N=C(N)N` [Metformin hydrochloride], the “maximum dose which does not cause any side-effects” value is listed as 1500 mg/day.
